Laboratory results published in ChEMBL document CHEMBL4619814, “Identification and Development of 1,4-Diaryl-1,2,3-triazolo-Based Ureas as Novel FLT3 Inhibitors” (ACS Med Chem Lett, 2020).
The source made the active and inactive calls. The calls are words filed in the database; no cut-off is given here.

Assays:
[1] = target: T1, Receptor-type tyrosine-protein kinase FLT3 (Homo sapiens, UniProt P36888, ITD)
Description: Binding affinity to recombinant human FLT3 ITD mutant expressed in bacterial expression system by Kinomescan method

MV4-11 [2] = test: Induction of apoptosis in human MV4-11 cells assessed as necrotic cells at 4 nM incubated for 48 hrs by annexin V and 7-AAD staining based flow cytometry analysis (reference value: 0.91 %); format: functional
[3] = target: T1, Receptor-type tyrosine-protein kinase FLT3; format: cell-based, Sf9
[4] = Clearance in Sprague-Dawley rat at 25 mg/kg, po; format: ADME, organism-based; conditions: in vivo
[5] = system: Receptor-type tyrosine-protein kinase FLT3 (Homo sapiens), P36888 [UNDEFINED MUTATION]; test: Inhibition of FLT3 ITD mutant expressed in human MV4-11 cells assessed as reduction in STAT5 level at 4 nM incubated for 6 hrs by Western blot analysis; format: cell-based
[6] = Cmax in Sprague-Dawley rat at 5 mg/kg, iv; format: ADME, organism-based; parameters: dose 5 mg/kg, route intravenous; conditions: in vivo
MV4-11 [7] = test: Induction of apoptosis in human MV4-11 cells assessed as viable cells at 20 nM incubated for 48 hrs by annexin V and 7-AAD staining based flow cytometry analysis (reference value: 90.47 %); format: functional; conditions: MV4-11, 48 h, read-out: Activity
[8] = target: Receptor-type tyrosine-protein kinase FLT3 (Homo sapiens) (UniProt P36888); test: Inhibition of FLT3 in human NB4 cells assessed as reduction in FLT3 phosphorylation at 0.8 to 500 nM incubated for 6 hrs by Western blot analysis; format: cell-based; conditions: NB-4
MV4-11 [9] = test: Induction of cell cycle arrest in human MV4-11 cells assessed as G2/M phase at 20 nM incubated for 48 hrs by propidium iodide staining based flow cytometry analysis (reference value: 24.88 %); format: functional
MV4-11 [10] = test: Induction of apoptosis in human MV4-11 cells assessed as early apoptotic cells at 100 nM incubated for 48 hrs by annexin V and 7-AAD staining based flow cytometry analysis (reference value: 6.36 %); format: functional
MV4-11 [11] = test: Induction of cell cycle arrest in human MV4-11 cells assessed as G0/G1 phase at 4 nM incubated for 48 hrs by propidium iodide staining based flow cytometry analysis (reference value: 54.82 %); format: functional
MV4-11 [12] = test: Induction of cell cycle arrest in human MV4-11 cells assessed as reduction in CDK2 expression at 0.16 to 100 nM by Western blot analysis; format: functional, cell-based
[13] = target: Proto-oncogene tyrosine-protein kinase receptor Ret (Homo sapiens, UniProt P07949)
Chain of Proto-oncogene tyrosine-protein kinase receptor Ret (P07949 whole entry): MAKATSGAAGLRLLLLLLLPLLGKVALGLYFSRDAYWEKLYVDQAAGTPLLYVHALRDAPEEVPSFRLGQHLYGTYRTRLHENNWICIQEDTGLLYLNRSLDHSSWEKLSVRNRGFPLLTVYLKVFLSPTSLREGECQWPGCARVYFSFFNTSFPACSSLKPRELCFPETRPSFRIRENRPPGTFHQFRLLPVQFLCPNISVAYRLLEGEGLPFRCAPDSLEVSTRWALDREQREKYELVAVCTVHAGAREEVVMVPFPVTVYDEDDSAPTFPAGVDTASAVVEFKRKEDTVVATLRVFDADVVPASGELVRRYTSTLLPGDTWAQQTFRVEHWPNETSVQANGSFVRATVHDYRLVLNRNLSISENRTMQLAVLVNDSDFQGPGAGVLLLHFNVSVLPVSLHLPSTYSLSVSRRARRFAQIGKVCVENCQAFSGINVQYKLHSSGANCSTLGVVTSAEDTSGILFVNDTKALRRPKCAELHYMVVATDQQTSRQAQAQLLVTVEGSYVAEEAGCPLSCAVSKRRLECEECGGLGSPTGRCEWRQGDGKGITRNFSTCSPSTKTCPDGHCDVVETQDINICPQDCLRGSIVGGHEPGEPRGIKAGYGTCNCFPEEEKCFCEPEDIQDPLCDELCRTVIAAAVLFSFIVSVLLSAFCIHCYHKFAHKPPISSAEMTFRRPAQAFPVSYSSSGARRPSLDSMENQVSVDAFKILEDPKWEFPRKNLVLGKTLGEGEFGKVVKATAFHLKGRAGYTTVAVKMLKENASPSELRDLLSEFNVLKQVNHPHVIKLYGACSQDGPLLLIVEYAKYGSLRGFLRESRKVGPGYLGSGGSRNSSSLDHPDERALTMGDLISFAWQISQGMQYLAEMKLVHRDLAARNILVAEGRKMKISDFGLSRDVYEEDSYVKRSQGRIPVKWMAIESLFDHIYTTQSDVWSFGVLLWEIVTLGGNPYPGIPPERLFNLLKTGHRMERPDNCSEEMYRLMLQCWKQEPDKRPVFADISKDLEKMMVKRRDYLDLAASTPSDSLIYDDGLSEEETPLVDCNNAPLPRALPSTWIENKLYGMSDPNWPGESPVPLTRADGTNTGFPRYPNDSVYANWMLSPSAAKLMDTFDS
Description: Binding affinity to recombinant human RET (713 to 1014 residues) expressed in bacterial expression system by Kinomescan method

MV4-11 [14] = test: Induction of apoptosis in human MV4-11 cells assessed as early apoptotic cells at 4 nM incubated for 48 hrs by annexin V and 7-AAD staining based flow cytometry analysis (reference value: 6.36 %); format: functional
[15] = AUC in Sprague-Dawley rat at 5 mg/kg, iv; format: ADME, organism-based; conditions: in vivo
[16] = Half life in Sprague-Dawley rat at 5 mg/kg, iv; format: ADME, organism-based; conditions: in vivo
MV4-11 [17] = test: Induction of apoptosis in human MV4-11 cells assessed as necrotic cells at 20 nM incubated for 48 hrs by annexin V and 7-AAD staining based flow cytometry analysis (reference value: 0.91 %); format: functional
MV4-11 [18] = test: Induction of cell cycle arrest in human MV4-11 cells assessed as G2/M phase at 100 nM incubated for 48 hrs by propidium iodide staining based flow cytometry analysis (reference value: 24.88 %); format: functional
[19] = Tmax in Sprague-Dawley rat at 5 mg/kg, iv; format: ADME, organism-based; conditions: in vivo
[20] = system: Receptor-type tyrosine-protein kinase FLT3 (Homo sapiens), P36888 [UNDEFINED MUTATION]; test: Inhibition of FLT3 ITD mutant expressed in human MV4-11 cells assessed as reduction in STAT5 level at > 20 nM incubated for 6 hrs by Western blot analysis relative to control; format: cell-based
KG-1 = test: cells; conditions: Homo sapiens, KG-1, 72 h
Description: Cytotoxicity against human KG1 cells assessed as reduction in cell viability incubated for 72 hrs by CCK8 assay

MV4-11 [21] = test: Antitumor activity at human MV4-11 cells xenografted in CB17-SCID mouse assessed as tumor growth inhibition at 40 mg/kg, po administered for 10 days and measured on day 10 relative to control; format: functional; conditions: MV4-11, po, 240 h, read-out: TGI
NB-4 = test: cells; conditions: Homo sapiens, NB-4, 72 h
Description: Cytotoxicity against human NB4 cells assessed as reduction in cell viability incubated for 72 hrs by CCK8 assay

[22] = Toxicity in CB17-SCID mouse xenografted with human MV4-11 cells assessed as side effects at 10 to 40 mg/kg, po administered for 10 days and observed on day 10; format: organism-based; conditions: in vivo, 240 h
in vitro = conditions: mouse, BaF3 cells
Description: Cytotoxicity against human BAF3 cells assessed as growth inhibition incubated for 72 hrs by CCK8 assay

MV4-11 [23] = test: Induction of apoptosis in human MV4-11 cells assessed as necrotic cells at 100 nM incubated for 48 hrs by annexin V and 7-AAD staining based flow cytometry analysis (reference value: 0.91 %); format: functional
[24] = target: Mast/stem cell growth factor receptor Kit (Homo sapiens, UniProt P10721)
Chain of Mast/stem cell growth factor receptor Kit (P10721 whole entry): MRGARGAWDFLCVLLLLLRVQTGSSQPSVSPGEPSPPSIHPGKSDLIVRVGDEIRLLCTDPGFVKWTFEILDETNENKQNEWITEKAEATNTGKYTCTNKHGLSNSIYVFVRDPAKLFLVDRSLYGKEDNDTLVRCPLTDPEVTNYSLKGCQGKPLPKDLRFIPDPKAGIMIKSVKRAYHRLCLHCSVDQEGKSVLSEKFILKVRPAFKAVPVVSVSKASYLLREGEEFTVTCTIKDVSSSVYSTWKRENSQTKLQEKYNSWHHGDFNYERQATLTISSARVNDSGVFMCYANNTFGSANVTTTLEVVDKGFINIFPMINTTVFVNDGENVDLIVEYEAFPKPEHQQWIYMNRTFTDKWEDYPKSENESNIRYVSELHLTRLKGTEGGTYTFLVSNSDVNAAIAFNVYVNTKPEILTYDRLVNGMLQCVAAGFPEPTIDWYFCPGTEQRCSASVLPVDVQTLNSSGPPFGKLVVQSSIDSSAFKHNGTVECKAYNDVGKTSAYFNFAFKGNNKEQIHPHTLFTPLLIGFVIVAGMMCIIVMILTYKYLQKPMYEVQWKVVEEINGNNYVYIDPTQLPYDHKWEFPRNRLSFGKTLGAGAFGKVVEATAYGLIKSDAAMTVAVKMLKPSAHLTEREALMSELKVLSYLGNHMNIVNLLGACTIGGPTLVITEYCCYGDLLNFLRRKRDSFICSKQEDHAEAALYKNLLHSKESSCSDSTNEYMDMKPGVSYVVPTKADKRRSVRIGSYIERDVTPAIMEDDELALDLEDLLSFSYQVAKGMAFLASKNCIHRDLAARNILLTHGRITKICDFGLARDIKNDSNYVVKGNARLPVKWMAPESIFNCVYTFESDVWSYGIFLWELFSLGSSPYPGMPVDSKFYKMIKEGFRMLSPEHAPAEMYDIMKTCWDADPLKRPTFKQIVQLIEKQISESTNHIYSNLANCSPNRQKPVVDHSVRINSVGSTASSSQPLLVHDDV
Description: Binding affinity to recombinant human KIT (571 to 972 residues) expressed in bacterial expression system by Kinomescan method

MV4-11 [25] = test: Induction of apoptosis in human MV4-11 cells assessed as late apoptotic cells at 100 nM incubated for 48 hrs by annexin V and 7-AAD staining based flow cytometry analysis (reference value: 2.25 %); format: functional
MV4-11 [26] = test: Induction of cell cycle arrest in human MV4-11 cells assessed as G0/G1 phase at 100 nM incubated for 48 hrs by propidium iodide staining based flow cytometry analysis (reference value: 54.82 %); format: functional
[27] = system: Receptor-type tyrosine-protein kinase FLT3 (Homo sapiens), P36888 [UNDEFINED MUTATION]; conditions: MV4-11
Description: Inhibition of FLT3 ITD mutant expressed in human MV4-11 cells assessed as reduction in cell growth incubated for 72 hrs by CCK8 assay

[28] = target: Receptor-type tyrosine-protein kinase FLT3 (Homo sapiens, UniProt P36888, D835V/ITD)
Description: Binding affinity to recombinant human FLT3 ITD/D835V double mutant expressed in bacterial expression system by Kinomescan method

[29] = target: Platelet-derived growth factor receptor beta (Homo sapiens, UniProt P09619)
Chain of Platelet-derived growth factor receptor beta (P09619 whole entry): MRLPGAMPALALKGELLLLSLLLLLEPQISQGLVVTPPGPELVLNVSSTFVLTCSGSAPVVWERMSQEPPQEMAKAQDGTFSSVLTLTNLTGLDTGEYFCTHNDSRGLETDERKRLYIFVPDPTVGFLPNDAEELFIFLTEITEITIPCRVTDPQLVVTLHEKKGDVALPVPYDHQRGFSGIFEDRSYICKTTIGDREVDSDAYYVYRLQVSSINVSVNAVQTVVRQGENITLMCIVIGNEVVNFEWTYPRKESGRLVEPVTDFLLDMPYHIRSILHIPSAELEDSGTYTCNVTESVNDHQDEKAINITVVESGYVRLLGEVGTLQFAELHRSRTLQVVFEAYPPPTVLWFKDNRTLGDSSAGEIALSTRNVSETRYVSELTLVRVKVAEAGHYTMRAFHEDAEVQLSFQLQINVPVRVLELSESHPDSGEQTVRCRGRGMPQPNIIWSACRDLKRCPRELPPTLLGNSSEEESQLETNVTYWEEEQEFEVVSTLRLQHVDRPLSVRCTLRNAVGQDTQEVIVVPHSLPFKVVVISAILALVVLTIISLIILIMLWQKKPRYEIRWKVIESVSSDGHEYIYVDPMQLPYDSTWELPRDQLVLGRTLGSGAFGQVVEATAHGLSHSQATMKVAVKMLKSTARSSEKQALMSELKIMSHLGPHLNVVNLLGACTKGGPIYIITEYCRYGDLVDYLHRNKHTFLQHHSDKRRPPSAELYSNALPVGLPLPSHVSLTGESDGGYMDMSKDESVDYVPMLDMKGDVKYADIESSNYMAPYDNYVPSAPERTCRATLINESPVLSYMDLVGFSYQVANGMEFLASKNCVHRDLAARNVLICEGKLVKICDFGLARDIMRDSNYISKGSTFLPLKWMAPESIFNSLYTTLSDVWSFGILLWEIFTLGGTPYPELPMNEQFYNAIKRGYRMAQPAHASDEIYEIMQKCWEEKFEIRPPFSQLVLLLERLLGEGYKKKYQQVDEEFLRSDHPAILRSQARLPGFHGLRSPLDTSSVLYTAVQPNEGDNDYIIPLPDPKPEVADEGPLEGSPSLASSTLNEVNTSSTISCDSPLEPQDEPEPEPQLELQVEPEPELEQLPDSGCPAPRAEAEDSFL
Description: Binding affinity to recombinant human PDGFRB (582 to 1009 residues) expressed in bacterial expression system by Kinomescan method

MOLM-13 = test: cells; conditions: Homo sapiens, MOLM-13, 72 h
Description: Cytotoxicity against human MOLM13 cells assessed as reduction in cell viability incubated for 72 hrs by CCK8 assay

U-937 = test: cells; conditions: Homo sapiens, U-937, 72 h
Description: Cytotoxicity against human U937 cells assessed as reduction in cell viability incubated for 72 hrs by CCK8 assay

MV4-11 [30] = test: Induction of apoptosis in human MV4-11 cells assessed as late apoptotic cells at 4 nM incubated for 48 hrs by annexin V and 7-AAD staining based flow cytometry analysis (reference value: 2.25 %); format: functional
MV4-11 [31] = test: Induction of cell cycle arrest in human MV4-11 cells assessed as S phase at 100 nM incubated for 48 hrs by propidium iodide staining based flow cytometry analysis (reference value: 20.14 %); format: functional
MV4-11 [32] = test: Induction of apoptosis in human MV4-11 cells assessed as increase in Caspase-9 cleavage at 0.16 to 100 nM by Western blot analysis; format: functional, cell-based
HL-60 = test: cells; conditions: Homo sapiens, HL-60, 72 h
Description: Cytotoxicity against human HL60 cells assessed as reduction in cell viability incubated for 72 hrs by CCK8 assay

MV4-11 [33] = test: Induction of cell cycle arrest in human MV4-11 cells assessed as S phase at 20 nM incubated for 48 hrs by propidium iodide staining based flow cytometry analysis (reference value: 20.14 %); format: functional

## CC(C)(C)c1cc(NC(=O)Nc2ccc(-c3cn(-c4ccc(OCCN5CCOCC5)cc4Cl)nn3)cc2)no1
[1]
  Kd: 6.9 nM
MV4-11 [2]
  Activity: 1.15%
[3]
  IC50: 32.8 nM
[4]
  CL/F: 10.6 mL/min/kg
[5]
  inhibition: Active
[6]
  Cmax: 6850 ng/mL
MV4-11 [7]
  viability at 0.02 µM: 84%
[8]
  inhibition: inactive
MV4-11 [9]
  Activity: 6.53%
MV4-11 [10]
  Activity: 13.06%
MV4-11 [11]
  Activity: 66.16%
MV4-11 [12]
  Activity: Active
[13]
  Kd: 24 nM
MV4-11 [14]
  Activity: 7.51%
[15]
  AUC: 21200 ng·h/mL
[16]
  half-life: 5.11 h
MV4-11 [17]
  Activity: 1.09%
MV4-11 [18]
  Activity: 5.11%
[19]
  Tmax: 0.25 h
[20]
  inhibition: 100%
KG-1
  GI50: > 3000 nM
MV4-11 [21]
  inhibition in vivo at 40 mg/kg: 80.1%
NB-4
  GI50: > 3000 nM
[22]
  Activity: Non-Toxic
In vitro
  GI50 at 72 h: > 3000 nM
MV4-11 [23]
  Activity: 3.25%
[24]
  Kd: 21 nM
MV4-11 [25]
  Activity: 12.1%
MV4-11 [26]
  Activity: 89.92%
[27]
  GI50: 3 nM
[28]
  Kd: 10000 nM
[29]
  Kd: 8.1 nM
MOLM-13
  GI50: 5.9 nM
U-937
  GI50: > 3000 nM
MV4-11 [30]
  Activity: 2.64%
MV4-11 [31]
  Activity: 4.98%
MV4-11 [32]
  Activity: Active
HL-60
  GI50: > 3000 nM
MV4-11 [33]
  Activity: 5.68%
